Measured values as given in patent US20240209028A1, “CNP COMPOUNDS” (priority 2022, published 2024).
Where two headings read alike, the source gives them in different places. Starred links: 1 amine or outer side, 2 acyl side, 3 side chain; linkers in the order of their positions; H or OH if unused. Positions of bridges follow the written chain, without caps; N, C: chain ends. Residues, ends and D or L forms follow the SMILES beside them. *: point of attachment. C18 diacid = O=C(O)CCCCCCCCCCCCCCCCC(=O)*; γGlu = O=C(O)[C@H](CCC(=O)[*:2])N[*:1]; AEEA = NCCOCCOCC(=O)O

Key:
[1] = CNP local tolerance study in LYD pigs (s.c. injection, histopathology); type: in vivo, domestic LYD pig
Description: The purpose of this study was to evaluate the local tissue reaction response to subcutaneous injection of CNP compounds in pigs.
Procedure: In domestic pigs, the injection site was subjected to histopathologic examination after subcutaneous dosing. Injections were placed mid-back between the shoulder and hip on both sides of the dorsal midline, and one or two days before injection sites of 2×2 cm were shaved and marked by permanent ink under light anaesthesia. Each injection consisted of 100 or 200 μl formulation with a concentration of approx. 4400 μM. CNP compound formulations were prepared according to the principles in General Methods of Preparation—Method G, and were either A) 8 mM sodium phosphate, 250 mM glycerol, pH 6.5, B) 5 mM sodium acetate, 250 mM glycerol, pH 4.0 or C) 5 mM sodium acetate, 240 mM propylene glycol, pH 4.0 and physiological saline was included as negative control.
On Day 1 the pigs were lightly anaesthetised. An insulin pen (NovoPen 4) and insulin needle (NovoTwist 32G/5 mm) were used for accurate deposition of the CNP formulations in the subcutaneous fat tissue with the needle perpendicular to the skin. On Day 5 (4 days post injection) or 6 (5 days post injection), the pigs were euthanised, and the injection sites were removed and fixed in 4% phosphate buffered neutral formaldehyde in sealed plastic containers. The tissue blocks were prefixed for 2-4 hours in 10% buffered formalin, cut into 2 mm thick slabs with a multi knife, examined for macroscopic changes and finally fixed overnight in cassettes. Two slabs of tissue were selected for light microscopic evaluation where the tissue reaction was maximal or alternatively in the central part of the injection site. Three to four 2-4 μm sections were cut from three levels at 100 μm distance, stained with haematoxylin and eosin (H&E) and evaluated in a light microscope. Histopathological changes were graded on a 5-level scale ((Minimal (Min), Mild (Mil), Moderate (Mod), Marked (Mar) and Severe (Sev)). The studies are summarised in Table 18.
Results: The results are summarised in Table 19. * Necrosis was used as a marker for local subcutaneous reactions; **NAD: No Abnormalities Detected

[2] = PK after i.v. and s.c. administration to domestic LYD pig; conditions: female, in vivo, Domestic LYD pig; for clearance: read-out: CL (ml/hr/kg), Intravenous PK (converted)
Protocol: The purpose of this study was to investigate pharmacokinetic and pharmacodynamic properties after intravenous (i.v.) and subcutaneous (s.c.) administration to Gottingen Minipig and domestic LYD pig, and to estimate bioavailability after s.c. dosing. Quantitative plasma analysis of CNP and cGMP levels were performed as described in
Animals and dosing: The pharmacokinetic and pharmacodynamic studies in Gottingen Minipig or domestic LYD pig were conducted at CRO Minerva Imaging or Novo Nordisk A/S, respectively. CNP compounds were dosed to normal female 1) Gottingen minipigs 6-12 months of age with an average weight of 22 kg or 2) domestic LYD pigs 4-5 months of age with and average weight of 80 kg. At least one week prior to dosing, permanent central venous catheters were implanted for blood sampling and intravenous (i.v.) dosing. For subcutaneous (s.c.) dosing, the pigs were ultrasound scanned and the optimal injection area laterally on the neck marked by a permanent tattoo. An insulin pen (NovoPen Echo or NovoPen 4) and insulin needle (NovoFine 32G/4 mm or NovoTwist 32G/5 mm) were used for accurate deposition of the CNP formulations in the subcutaneous fat tissue with the needle perpendicular to the skin.
CNP compounds were formulated according to the principles in General Methods of Preparation—Method G and were either A) 8 mM sodium phosphate, 250 mM glycerol, pH 6.5, B) 5 mM sodium acetate, 250 mM glycerol, pH 4.0, C) 5 mM sodium acetate, 240 mM propylene glycol, pH=4.0, D) 8 mM sodium phosphate, 250 mM glycerol, pH 7.5 or E) 20 mM sodium phosphate, 223 mM propylene glycol, pH 6.0.
Intravenously, the CNP compounds were dosed at 30-60 nmol/kg to Minipig and 15-43 nmol/kg to domestic pig using formulations A-E. Subcutaneously, the CNP compounds were dosed at 55-62 nmol/kg to Minipig and 20-30 nmol/kg to domestic pig using formulations A-D.
Sampling: Blood samples of approximately 1 mL were collected pre dose and up to 14 days post dose into EDTA-coated tubes (8 mM) for cGMP and CNP compound analysis by LC-MS. In few instances, cGMP was only analysed up to 48 hours post dose after intravenous dosing in domestic LYD pig. The blood samples were kept on wet ice for maximum 30 minutes until centrifugation for 10 minutes at 4° C. and minimum 1500G, and the plasma samples were stored at −20° C. until analysis.
Plasma concentration-time profiles were analyzed by non-compartmental PK analysis using Phoenix WinNonlin 8.1, Pharsight Inc., Mountain View, CA, USA. Calculation of the area under the plasma concentration-time curve (AUC) was based on the “linear up log down” method, and uniform weighting was used for estimation of the terminal rate constant (λz). S.c. bioavailability (F) was calculated as the dose-normalized AUC (AUC/dose) after s.c. administration divided by the AUC/dose after i.v. administration. […]

[3] = target: T1, human natriuretic peptide receptor 2 (hNPR2) (Homo sapiens, UniProt P20594); experiment: In vitro hNPR2 activity assay (cGMP GloSensor reporter, HEK293); type: cell-based
T1 construct: expressed in transfected cells; host or cells: HEK293 (ATCC CRL-1573), clone 35, co-transfected with pGloSensor-42F
T1 sequence (P20594 23-1047): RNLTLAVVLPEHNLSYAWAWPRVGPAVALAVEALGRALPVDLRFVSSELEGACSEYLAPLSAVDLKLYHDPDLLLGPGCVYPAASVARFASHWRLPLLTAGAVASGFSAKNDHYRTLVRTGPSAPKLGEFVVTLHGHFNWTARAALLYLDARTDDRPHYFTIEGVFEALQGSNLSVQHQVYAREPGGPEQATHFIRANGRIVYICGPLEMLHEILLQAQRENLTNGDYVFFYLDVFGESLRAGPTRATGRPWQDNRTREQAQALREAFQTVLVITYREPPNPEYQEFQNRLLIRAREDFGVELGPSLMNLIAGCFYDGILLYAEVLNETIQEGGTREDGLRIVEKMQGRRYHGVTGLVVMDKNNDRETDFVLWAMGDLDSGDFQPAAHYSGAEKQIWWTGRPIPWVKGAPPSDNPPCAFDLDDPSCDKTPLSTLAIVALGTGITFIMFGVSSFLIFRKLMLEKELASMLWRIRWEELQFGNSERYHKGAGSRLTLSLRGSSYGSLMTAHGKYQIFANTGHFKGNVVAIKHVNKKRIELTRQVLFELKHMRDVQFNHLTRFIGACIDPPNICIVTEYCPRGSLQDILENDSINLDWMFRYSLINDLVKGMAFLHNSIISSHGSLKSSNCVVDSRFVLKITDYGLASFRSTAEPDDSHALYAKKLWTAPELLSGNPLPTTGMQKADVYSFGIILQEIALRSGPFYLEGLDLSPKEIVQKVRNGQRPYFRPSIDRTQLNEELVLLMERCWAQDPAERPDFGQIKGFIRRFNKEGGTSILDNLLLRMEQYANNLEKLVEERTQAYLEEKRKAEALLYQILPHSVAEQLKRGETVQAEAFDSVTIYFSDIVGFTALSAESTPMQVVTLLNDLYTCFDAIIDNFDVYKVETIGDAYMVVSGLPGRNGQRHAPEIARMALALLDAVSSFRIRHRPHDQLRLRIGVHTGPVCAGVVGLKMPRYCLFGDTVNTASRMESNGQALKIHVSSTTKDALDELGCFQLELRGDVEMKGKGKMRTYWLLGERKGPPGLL
Method in brief: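 Potency is the EC50 from a four-parameter logistic fit, also expressed relative to the in-plate CNP22 control (×100), with at least two replicates. Compounds (ten concentrations, […], HSA-free diluent with 1% OVA, 0.01% Tween20) were incubated 30 min at 37 °C on HEK293 cells co-expressing hNPR2 and a GloSensor cGMP luciferase. Luminescence detected with Bright-Glo.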

[4] = iv, i.v., read-out: T½, iv (converted)

With CC[C@H](C)[C@@H]1NC(=O)[C@H](CCCNC(=N)N)NC(=O)[C@H](CC(=O)O)NC(=O)[C@H](CC(C)C)NC(=O)[C@H](CCCCN)NC(=O)[C@H](CC(C)C)NC(=O)CNC(=O)[C@H](Cc2ccccc2)NC(=O)[C@@H](NC(=O)CNC(=O)[C@H](CCCCN)NC(=O)[C@H](CO)NC(=O)[C@H](CC(C)C)NC(=O)CNC(=O)[C@H](CCCCN)NC(=O)[C@H](CCCCN)NC(=O)[C@H](CC(N)=O)NC(=O)[C@H](C)NC(=O)CNC(=O)[C@H](CCCCN)NC(=O)[C@H](Cc2ccc(O)cc2)NC(=O)[C@H](CCCCN)NC(=O)[C@H](CCCNC(=N)N)NC(=O)[C@H](C)NC(=O)[C@H](CC(N)=O)NC(=O)[C@@H]2CCCN2C(=O)[C@H](Cc2c[nH]cn2)NC(=O)[C@H](CCC(=O)O)NC(=O)[C@H](CCC(N)=O)NC(=O)CNC(=O)[C@@H]2CCCN2)CSSC[C@@H](C(=O)O)NC(=O)CNC(=O)[C@H](CC(C)C)NC(=O)CNC(=O)[C@H](CO)NC(=O)[C@H](CCSC)NC(=O)[C@H](CO)NC(=O)CNC1=O [Compound 0106] the “Number of injections by severity of necrosis: NAD” value ([1]; LYD pig, s.c., approx. 4400 μM, 4 or 5 days after injection) was 4.

Compound CC[C@H](C)[C@@H]1NC(=O)[C@H](CCCNC(=N)N)NC(=O)[C@H](CC(=O)O)NC(=O)[C@H](CC(C)C)NC(=O)[C@@H]2CCCN2C(=O)[C@H](CC(C)C)NC(=O)CNC(=O)[C@H](Cc2ccccc2)NC(=O)[C@@H](NC(=O)CNC(=O)[C@H](CCCCN)NC(=O)[C@H](CO)NC(=O)[C@H](CC(C)C)NC(=O)CNC(=O)[C@H](CCCCN)NC(=O)[C@H](CCCCN)NC(=O)[C@H](CCC(N)=O)NC(=O)[C@H](C)NC(=O)CNC(=O)[C@H](CCC(=O)O)NC(=O)[C@H](Cc2ccc(O)cc2)NC(=O)COCCOCCNC(=O)COCCOCCNC(=O)CC[C@H](NC(=O)CCCCCCCCCCCCCCCCC(=O)O)C(=O)O)CSSC[C@@H](C(=O)O)NC(=O)CNC(=O)[C@H](CC(C)C)NC(=O)CNC(=O)[C@H](CO)NC(=O)[C@H](CC(C)C)NC(=O)[C@H](CO)NC(=O)CNC1=O [Compound 1225] ({C18 diacid-γGlu-AEEA-AEEA}-YEGAQKKGLSKGCFGLPLDRIGSLSGLGC-OH; disulfide 13-29) has a clearance ([2]; iv, i.v.) of 3.23 mL/h/kg and a half-life [2, 4] of 15 h.

With CC[C@H](C)[C@@H]1NC(=O)[C@H](CCCNC(=N)N)NC(=O)[C@H](CC(=O)O)NC(=O)[C@H](CC(C)C)NC(=O)[C@@H]2CCCN2C(=O)[C@H](CC(C)C)NC(=O)CNC(=O)[C@H](Cc2ccccc2)NC(=O)[C@@H](NC(=O)CNC(=O)[C@H](CO)NC(=O)[C@H](CO)NC(=O)[C@H](CC(C)C)NC(=O)CNC(=O)[C@H](CCCCN)NC(=O)[C@H](CCCCN)NC(=O)[C@H](CCC(N)=O)NC(=O)[C@H](C)NC(=O)CNC(=O)[C@H](CCC(=O)O)NC(=O)[C@H](Cc2ccc(O)cc2)NC(=O)COCCOCCNC(=O)COCCOCCNC(=O)CC[C@H](NC(=O)CCCCCCCCCCCCCCCCC(=O)O)C(=O)O)CSSC[C@@H](C(=O)O)NC(=O)CNC(=O)[C@H](CC(C)C)NC(=O)CNC(=O)[C@H](CO)NC(=O)[C@H](CC(C)C)NC(=O)[C@H](CO)NC(=O)CNC1=O [Compound 1227] ({C18 diacid-γGlu-AEEA-AEEA}-YEGAQKKGLSSGCFGLPLDRIGSLSGLGC-OH; disulfide 13-29) the clearance ([2]; iv, i.v.) was 5.54 mL/h/kg, the half-life [2, 4] was 11 h and the bioavailability ([2]; sc, s.c. bioavailability, read-out: F (%), Subcutaneous PK) was 55%. It also gave a half-life ([2]; sc, s.c., read-out: T½, sc (converted)) of 9 h.

In the case of CC[C@H](C)[C@@H]1NC(=O)[C@H](CCCNC(=N)N)NC(=O)[C@H](CC(=O)O)NC(=O)[C@H](CC(C)C)NC(=O)[C@H](CCCCN)NC(=O)[C@H](CC(C)C)NC(=O)CNC(=O)[C@H](Cc2ccccc2)NC(=O)[C@@H](NC(=O)CNC(=O)[C@H](CCCCN)NC(=O)[C@H](CO)NC(=O)[C@H](CC(C)C)NC(=O)CNC(=O)[C@H](CCCCN)NC(=O)[C@H](CCCCN)NC(=O)[C@H](CC(N)=O)NC(=O)[C@H](C)NC(=O)CNC(=O)[C@H](CCCCN)NC(=O)[C@H](Cc2ccc(O)cc2)NC(=O)[C@H](CCCCN)NC(=O)[C@H](CCCNC(=N)N)NC(=O)[C@H](C)NC(=O)[C@H](CC(N)=O)NC(=O)[C@@H]2CCCN2C(=O)[C@H](Cc2c[nH]cn2)NC(=O)[C@H](CCC(=O)O)NC(=O)[C@H](CCC(N)=O)NC(=O)CNC(=O)[C@@H]2CCCN2)CSSC[C@@H](C(=O)O)NC(=O)CNC(=O)[C@H](CC(C)C)NC(=O)CNC(=O)[C@H](CO)NC(=O)[C@H](CCSC)NC(=O)[C@H](CO)NC(=O)CNC1=O [compound 0106], the injection site reactions ([1]; subcutaneous injections in the pig) is reported as “no observable injection site reactions”, the EC50 ([3]; 0% HSA, HEK293-hNPR2/GloSensor cells) is reported as 0.18 nM and the “hNPR2 0% HSA. [EC50% rel CNP]” value ([3]; potency relative to CNP22 (0065)) is reported as 201.1%.
